The assay concerns the target T1, rat steroid 17-20 lyase (Rattus norvegicus, UniProt P11715).
T1 construct: Testes were excised from ten-week-old male Wistar rats, homogenized and then centrifuged to give microsomes; from tissue; host or cells: testis microsomes of ten-week-old male Wistar rats
T1 sequence (P11715 1-507): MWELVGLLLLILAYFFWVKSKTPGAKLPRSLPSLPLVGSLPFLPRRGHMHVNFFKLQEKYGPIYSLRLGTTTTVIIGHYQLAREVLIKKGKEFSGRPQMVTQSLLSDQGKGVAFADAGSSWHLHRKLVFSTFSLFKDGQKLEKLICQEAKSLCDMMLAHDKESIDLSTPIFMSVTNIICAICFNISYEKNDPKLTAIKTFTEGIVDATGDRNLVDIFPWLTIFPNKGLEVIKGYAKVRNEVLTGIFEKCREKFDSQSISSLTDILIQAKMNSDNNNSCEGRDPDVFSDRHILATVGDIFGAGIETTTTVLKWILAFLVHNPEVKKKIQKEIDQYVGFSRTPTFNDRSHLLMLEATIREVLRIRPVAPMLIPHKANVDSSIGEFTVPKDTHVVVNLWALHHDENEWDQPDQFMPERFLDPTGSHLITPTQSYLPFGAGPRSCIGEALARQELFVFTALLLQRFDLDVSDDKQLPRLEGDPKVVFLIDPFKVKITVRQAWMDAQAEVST
In words: Measurement of inhibition of rat steroid 17-20 lyase activity [in vitro]. Format: biochemical. The protocol: (1) Measurement of inhibition of rat steroid 17-20 lyase activity [in vitro]
This was carried out in accordance with the method described in J. Steroid Biochem., Vol.33, No.6, 1191-1195 (1989).
Testes were excised from ten-week-old male Wistar rats, homogenized and then centrifuged to give microsomes. The microsomal protein (50 µg), 1 µM of [1,2-^3H]-17α-hydroxyprogesterone (5.55 × 10^5 dpm) and a test compound were dissolved in 100 µl of 50 mM phosphate buffer (pH 7.4), NADPH solution was added, and then the mixture was incubated at 37°C for 60 minutes. Then, 400 µl of a mixed solution of methanol and tetrahydrofuran (2:3) was added, and the mixture was subjected to centrifugation, and then radioactivities of the substrate and the formed product (androstenedione and testosterone) in the resulting supernatant were measured by a high performance liquid chromatography (HPLC) equipped with a radioisotope detector to examine the activity of the test compound to inhibit steroid 17-20 lyase.

What is called IC50 is the concentration that inhibits the measured activity by half.

Like-named read-outs stand apart in the source and are kept apart here.

On to `Fc1ccc2c(c1)[nH]c1cc(Cc3cccnc3)ccc12` [Control compound, reference compound], for which the IC50 (rat testis microsomes (50 µg protein), 1 µM [1,2-3H]-17α-hydroxyprogesterone, NADPH, pH 7.4, 37°C, 60 minutes, HPLC, read-out: Inhibition of steroid 17-20 lyase activity IC50) turned out to be 12.7 nM. Consider `CC(c1ccc2c(c1)[nH]c1ccccc12)c1c[nH]cn1` (stereo not drawn) [Example 1e, 2-[1-(1H-Imidazol-4-yl)ethyl]-9H-carbazole], for which the concentration for half-maximal inhibition (IC50) is 3.9 nM. `CCCn1cncc1Cc1ccc2c(c1)[nH]c1ccccc12` [Example 13, 2-[(1-Propyl-1H-imidazol-5-yl)methyl]-9H-carbazole] displayed an IC50 of 2.5 nM.

The record behind these values is patent publication EP0820989A1, “IMIDAZOLE DERIVATIVES AND MEDICINAL COMPOSITION THEREOF” (YAMANOUCHI PHARMACEUTICAL CO., LTD., priority 1995, dated 1996).
